Measurements as given in publication PMC6152192, “Novel Methylselenoesters as Antiproliferative Agents” (Molecules : A Journal of Synthetic Chemistry and Natural …, 2017).

Columns and labels:
MCF7 cells = assay: Cell cycle analysis (propidium iodide, Apo-Direct kit, flow cytometry); type: cell-based; settings: for concentration from which the increase of cells in G2/M phase was evident: MCF7, 24 h; for effect on cell cycle distribution: MCF7, increasing concentrations 24 h or time-course; for time of significant decrease in the G0/G1 phase / treatment time after which an increase in G2/M phase was found: MCF7, time-course, 15 μM compound 5 or 30 μM compound 15
Method: Cell cycle arrest is the target of many anticancer drugs, as it is the first step to decrease cell proliferation. To gain a better understanding of the mechanism of these compounds, the effect of compounds 5 and 15 on cell cycle distribution was analyzed. MCF7 cells were treated with increasing concentrations of both compounds for 24 h or with 15 μM 5 or 30 μM 15 for different times. The negative control was treated with vehicle, and camptothecin (6 μM) was used as a positive control. Samples were stained with propidium iodide using the Apo-Direct kit (BD Pharmingen, Madrid, Spain) and processed by flow cytometry.
3 × 10^6 or 2 × 10^6 MCF7 cells were seeded in 25 cm^2 flasks for treatments up to 24 h or 48 h, respectively. DMSO (vehicle) or the dissolved compounds were added 24 h after seeding and cells were incubated for different times at 37 °C under 5% CO2. Cell cycle and cell death were analyzed simultaneously with the Apo-Direct kit (BD Pharmingen, Madrid, Spain), following the manufacturer’s protocol. Briefly, cells were fixed in 1% paraformaldehyde for 45 min at 0 °C, washed with PBS and incubated for at least 30 min in 70% ethanol on ice. Cells were then stained both with FITC-dUTP (1 h, 37 °C) and propidium iodide (30 min, room temperature) and analyzed by flow cytometry using a Coulter Epics XL cytometer (Beckman Coulter, Brea, CA, USA).
Figure 4 Compounds 5 and 15 induce cell cycle arrest in G2/M phase in MCF7. MCF7 cells were treated with different concentrations of compound 5, 15 or vehicle (control) for 24 h or for different time periods. Cells were stained with propidium iodide with the Apo-Direct kit and analyzed by flow cytometry. (A) Quantification of cell cycle distribution after 24 h treatment with increasing concentrations of compound 5; (B) Representative experiment of A; (C) Quantification of cell cycle distribution after 24 h treatment with increasing concentrations of compound 15; (D) Representative experiment of C; (E) Cell cycle distribution after treatment with vehicle, 15 μM of compound 5 or 30 μM of compound 15 for different times. Results represent the mean ± SEM of at least three independent experiments performed in duplicate. * p < 0.05, ** p < 0.01.

[1] = Methylselenol (CH3SeH) release by hydrolysis, quantified with DTNB (Ellman's reagent); type: physicochemical; settings: 100 μM compound, 100 μM DTNB
From the text: The new compounds were designed as CH3SeH precursors. The chemical features of the selenoester functional group facilitate a nucleophilic attack (i.e., with water) which would deliver the CH3SeH residue. In order to verify if CH3SeH could be released from the molecules by hydrolysis and if the rate differed among the compounds, the reaction of CH3SeH with 5,5′-dithiobis(2-nitrobenzoic acid) (DTNB or Ellman’s reagent) in aqueous environment was monitored. Briefly, when the disulfide bridge of DTNB reacts with thiols or selenols, 2-nitro-5-thiobenzoate (TNB^2−) is released and the mixed disulfide or selenylsulfide is formed. Each released CH3SeH produces one yellow TNB^2− species, whose absorbance can be quantified at 412 nm (Figure 2A).
A stock solution of the compounds was prepared in anhydrous DMSO (10 mM). The compounds were placed in a 96-well plate in a final concentration of 100 μM. Reaction started after adding 200 μL of an aqueous 100 mM Na2HPO4 buffer (1 mM EDTA, pH = 8), containing 100 μM of DTNB from a freshly prepared 10 mM ethanolic stock, which were added just before starting the reaction. The DTNB concentration was quantified with a cysteine standard curve ([…]). Blanks for the compounds in the absence of DTNB were also included as well as a blank to measure the slow but spontaneous hydrolysis of DTNB, which was further subtracted from all the values. Absorbance was read at 412 nm in a FLUOstar Omega microplate reader (BMG LabTech, Ortenberg, Germany). Results represent means of triplicate values ± SD.
Figure 2 CH3SeH release rates are dependent on the chemical features of the molecule. Released CH3SeH was quantified through reaction with Ellman’s reagent (DTNB). (A) Proposed reaction between CH3SeH and DTNB; (B) Quantification of TNB^2− at different times. The compounds were tested at 100 μM in 200 μL of 100 mM phosphate buffer (1 mM EDTA, pH = 8). DTNB concentration was also 100 μM. Absorbance was followed at 412 nm over 72 h. A cysteine standard curve (7.5–150 μM) was used to calculate the concentration of TNB^2− over time. Compounds showing less than 15% hydrolysis at 72 h are not included, except for compound 5 as example. Error bars indicate SD of triplicates.

Row | Substance | concentration from which the increase of cells in G2/M phase was evident (MCF7 cells) [µM] | effect on cell cycle distribution (MCF7 cells) | time of significant decrease in the G0/G1 phase (MCF7 cells) [h] | treatment time after which an increase in G2/M phase was found (MCF7 cells) [h] | hydrolysis at 72 h ([1]; phosphate buffer pH 8, 72 h) | CH3SeH release / hydrolysis rate ([1]; 100 mM phosphate buffer, 1 mM EDTA, pH 8, followed over 72 h)
1 | Methyl 3-chlorothiophen-2-carboselenoate [Compound 5] | ≥ 15 | increased the percentage of cells in G2/M phase | 8 | 8 | less than 15% | –
2 | Dimethyl 2,5-furandicarboselenoate [Compound 15] | ≥ 7 | increased the percentage of cells in G2/M phase | 16 | 8 | – | more sustained release
